Reference: patent US20240408169A1 (priority 2023, published 2024)
Where two headings read alike, the source gives them in different places. *1 amine or outer side, *2 acyl side, *3 side chain or, on linkers, in order; H or OH if unused. Where a SMILES comes first, the peptide text is derived from it. Bridges are numbered along the chain shown (N, C = ends). [ ]: non-standard residue; d: D form. The star is where a group is joined. X157 = CN([C@@H](Cc1cc(Cl)ccc1-c1ccc(S(=O)(=O)N2CCOCC2)cc1)C(=O)[*:2])[*:1]; X202 = CN([C@@H](Cc1cc(Cl)ccc1-c1ccc(N2CCN(CC(F)F)CC2)cc1)C(=O)[*:2])[*:1]; X122 = CN([C@@H](Cc1cc(Cl)ccc1C1=CCN(C(=O)C(C)(C)C)CC1)C(=O)[*:2])[*:1]; X142 = CN([C@@H](Cc1cc(Cl)ccc1C1=CCN(S(C)(=O)=O)CC1)C(=O)[*:2])[*:1]; X200 = CN([C@@H](Cc1cc(F)ccc1C1CCN(C(=O)C2CC2)CC1)C(=O)[*:2])[*:1]; X82 = CN([C@@H](Cc1cc(Cl)ccc1-c1cnn(S(C)(=O)=O)c1)C(=O)[*:2])[*:1]; NMePhe(5-Cl,2-O(2-Pym)) = CN[C@@H](Cc1cc(Cl)ccc1Oc1ncccn1)C(=O)O; X178 = CN([C@@H](Cc1cc(F)ccc1-c1cnn(C2CCOC2)c1)C(=O)[*:2])[*:1]; NMehhhLys(Me) = CN([C@@H](CCCCCCCN(C)[*:3])C(=O)[*:2])[*:1]; X168 = Cc1ncc(-c2ccc(Cl)cc2C[C@@H](C(=O)[*:2])N(C)[*:1])o1; X131 = CN([C@@H](Cc1cc(F)cnc1-c1cnn(C)c1)C(=O)[*:2])[*:1]; X176 = CN([C@@H](Cc1cc(F)ccc1-c1cccnc1)C(=O)[*:2])[*:1]; NMe(hhhLys) = CN([C@@H](CCCCCCCN[*:3])C(=O)[*:2])[*:1]; NMe3Pal(2-OMe,5-Cl) = CN[C@@H](Cc1cc(Cl)cnc1OC)C(=O)O; Cyclopropanecarbonyl(1-CF3) = O=C(C1(C(F)(F)F)CC1)*; cBuCO(3,3-F2-1-CF3) = O=C(C1(C(F)(F)F)CC(F)(F)C1)*; NMePhe(2,5-Cl2) = CN[C@@H](Cc1cc(Cl)ccc1Cl)C(=O)O; Pro(trans-4-F) = O=C(O)[C@@H]1C[C@@H](F)CN1; Pivaloyl(3,3,3-F3) = CC(C)(C(=O)*)C(F)(F)F; Gly(cPr) = N[C@H](C(=O)O)C1CC1

Assays:
OVCAR3 cells = experiment: MTT proliferation assay, OVCAR3; assay type: cell-based; conditions: 5 days compound exposure, 1:3 serial dilution starting at 10 μM;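 also: compound given as an 8- or 10-point series, one day after plating, with exposure covering roughly 3-4 cell doublings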
CyclinE1/CDK2 = target: T1, CyclinE1/CDK2 (Homo sapiens, UniProt P24864); experiment: Fluorescence Polarization (FP) competitive binding assay, Cyclin E1/Cdk2;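 also: readings taken after two-hour equilibration at room temperature in HEPES buffer with NaCl, DTT, NP-40 and BSA, IC50 fitted from eight-concentration serial dilution series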
T1 construct: purchased Eurofins, discovery 14-475

CyclinA2/CDK2 = target: T2, CyclinA2/CDK2 (Homo sapiens, UniProt P20248); experiment: Fluorescence Polarization (FP) competitive binding assay, Cyclin A2/Cdk2;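 also: plates equilibrated two hours at room temperature before polarization reading, IC50 fitted from eight-concentration compound titration curves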
T2 construct: purchased CRELUX Protein Services

CyclinB1/CDK1 = target: T3, CyclinB1/CDK1 (Homo sapiens, UniProt P14635); experiment: Fluorescence Polarization (FP) competitive binding assay, Cyclin B1/Cdk1;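 also: fluorescence polarization read after equilibration at room temperature, with IC50 taken from serially diluted dose-response curves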
T3 construct: purchased Eurofins, discovery 14-450

NCI-H1048 cells = experiment: MTT proliferation assay, NCI-H1048; assay type: cell-based; conditions: 5 days compound exposure, 1:3 serial dilution starting at 10 μM;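 also: Dose-response in 96-well plates over 8 or 10 concentration points, with exposure spanning 3-4 cell doublings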
[1] = 10 nM Cyclin E1/Cdk2, 2 nM FAM probe, average of 2-3 independent experiments, read-out: Cyclin E FP IC50
[2] = 8 nM Cyclin A2/Cdk2, 2 nM FAM probe; average of 2-3 independent experiments; read-out: Cyclin A FP IC50
[3] = 10 nM Cyclin B1/Cdk1, 2 nM FAM probe; average of 2-3 independent experiments; read-out: Cyclin B FP IC50

| Compound | GI50 (OVCAR3 cells) | IC50 (CyclinE1/CDK2; [1]) | IC50 (CyclinA2/CDK2; [2]) | IC50 (CyclinB1/CDK1; [3]) | GI50 (NCI-H1048 cells) | IC50 (CyclinE1/CDK2) | IC50 (CyclinA2/CDK2; read-out: Cyclin A FP IC50; 8 nM Cyclin A2/Cdk2, 2 nM FAM probe; average of 2-3 independent experiments) | IC50 (CyclinB1/CDK1; read-out: Cyclin B FP IC50; 10 nM Cyclin B1/Cdk1, 2 nM FAM probe; average of 2-3 independent experiments) |
| --- | --- | --- | --- | --- | --- | --- | --- | --- |
| CC(C)C[C@@H]1NC(=O)[C@@H](N(C)C(=O)[C@@H](NC(=O)[C@@H]2C[C@@H](F)CN2C(=O)C2(C(F)(F)F)CC(F)(F)C2)C2CC2)CCCCCCCNC(=O)[C@H](Cc2cc(Cl)ccc2Oc2ncccn2)N(C)C1=O [Example 154] ({cBuCO(3,3-F2-1-CF3)}-[Pro(trans-4-F)][Gly(cPr)][NMe(hhhLys)]L[NMePhe(5-Cl,2-O(2-Pym))]; lactam 3-C) | 20 nM | 480 nM | 150 nM | 20 nM | 20 nM |  |  |  |
| CC(C)C[C@@H]1NC(=O)[C@@H](N(C)C(=O)[C@@H](NC(=O)[C@@H]2C[C@@H](F)CN2C(=O)C2(C(F)(F)F)CC(F)(F)C2)C2CC2)CCCCCCCN(C)C(=O)[C@H](Cc2cc(Cl)ccc2-c2ccc(S(=O)(=O)N3CCOCC3)cc2)N(C)C1=O [Example 354] ({cBuCO(3,3-F2-1-CF3)}-[Pro(trans-4-F)][Gly(cPr)][NMehhhLys(Me)]L[X157]; lactam 3-C) | 20 nM | 1340 nM | 30 nM | 20 nM | 10 nM |  |  |  |
| CC(C)C[C@@H]1NC(=O)[C@@H](N(C)C(=O)[C@@H](NC(=O)[C@@H]2C[C@@H](F)CN2C(=O)C(C)(C)C(F)(F)F)C2CC2)CCCCCCCN(C)C(=O)[C@H](Cc2cc(Cl)ccc2-c2cnn(S(C)(=O)=O)c2)N(C)C1=O [Example 301] ({Pivaloyl(3,3,3-F3)}-[Pro(trans-4-F)][Gly(cPr)][NMehhhLys(Me)]L[X82]; lactam 3-C) | 20 nM | 320 nM | 40 nM | 20 nM | 20 nM |  |  |  |
| CC(C)C[C@@H]1NC(=O)[C@@H](N(C)C(=O)[C@@H](NC(=O)[C@@H]2C[C@@H](F)CN2C(=O)C2(C(F)(F)F)CC(F)(F)C2)C2CC2)CCCCCCCN(C)C(=O)[C@H](Cc2cc(F)cnc2-c2cnn(C)c2)N(C)C1=O [Example 244] ({cBuCO(3,3-F2-1-CF3)}-[Pro(trans-4-F)][Gly(cPr)][NMehhhLys(Me)]L[X131]; lactam 3-C) | 40 nM | 580 nM | 60 nM | 20 nM | 100 nM |  |  |  |
| CC(C)C[C@@H]1NC(=O)[C@@H](N(C)C(=O)[C@@H](NC(=O)[C@@H]2C[C@@H](F)CN2C(=O)C2(C(F)(F)F)CC(F)(F)C2)C2CC2)CCCCCCCN(C)C(=O)[C@H](Cc2cc(F)ccc2C2CCN(C(=O)C3CC3)CC2)N(C)C1=O [Example 101] ({cBuCO(3,3-F2-1-CF3)}-[Pro(trans-4-F)][Gly(cPr)][NMehhhLys(Me)]L[X200]; lactam 3-C) | 30 nM | 470 nM | 30 nM | 20 nM | 20 nM |  |  |  |
| CC(C)C[C@@H]1NC(=O)[C@@H](N(C)C(=O)[C@@H](NC(=O)[C@@H]2C[C@@H](F)CN2C(=O)C2(C(F)(F)F)CC(F)(F)C2)C2CC2)CCCCCCCN(C)C(=O)[C@H](Cc2cc(Cl)ccc2-c2ccc(N3CCN(CC(F)F)CC3)cc2)N(C)C1=O [Example 352] ({cBuCO(3,3-F2-1-CF3)}-[Pro(trans-4-F)][Gly(cPr)][NMehhhLys(Me)]L[X202]; lactam 3-C) | 10 nM | 510 nM | 20 nM | 20 nM | 10 nM |  |  |  |
| Cc1ncc(-c2ccc(Cl)cc2C[C@H]2C(=O)N(C)CCCCCCC[C@H](N(C)C(=O)[C@@H](NC(=O)[C@@H]3C[C@@H](F)CN3C(=O)C3(C(F)(F)F)CC(F)(F)C3)C3CC3)C(=O)N[C@@H](CC(C)C)C(=O)N2C)o1 [Example 206] ({cBuCO(3,3-F2-1-CF3)}-[Pro(trans-4-F)][Gly(cPr)][NMehhhLys(Me)]L[X168]; lactam 3-C) | 20 nM |  |  |  | 10 nM | 200 nM | 20 nM | 20 nM |
| CC(C)C[C@@H]1NC(=O)[C@@H](N(C)C(=O)[C@@H](NC(=O)[C@@H]2C[C@@H](F)CN2C(=O)C2(C(F)(F)F)CC(F)(F)C2)C2CC2)CCCCCCCN(C)C(=O)[C@H](Cc2cc(F)ccc2-c2cnn(C3CCOC3)c2)N(C)C1=O (stereo partly drawn) [Example 94] ({cBuCO(3,3-F2-1-CF3)}-[Pro(trans-4-F)][Gly(cPr)][NMehhhLys(Me)]L[X178]; lactam 3-C) | 10 nM | 180 nM | 20 nM | 20 nM | 10 nM |  |  |  |
| COc1ncc(Cl)cc1C[C@H]1C(=O)NCCCCCCC[C@H](N(C)C(=O)[C@@H](NC(=O)[C@@H]2C[C@@H](F)CN2C(=O)C2(C(F)(F)F)CC(F)(F)C2)C2CC2)C(=O)N[C@@H](CC(C)C)C(=O)N1C [Example 275] ({cBuCO(3,3-F2-1-CF3)}-[Pro(trans-4-F)][Gly(cPr)][NMe(hhhLys)]L[NMe3Pal(2-OMe,5-Cl)]; lactam 3-C) | 10 nM | 230 nM | 50 nM | 20 nM | 10 nM |  |  |  |
| CC(C)C[C@@H]1NC(=O)[C@@H](N(C)C(=O)[C@@H](NC(=O)[C@@H]2C[C@@H](F)CN2C(=O)C2(C(F)(F)F)CC(F)(F)C2)C2CC2)CCCCCCCNC(=O)[C@H](Cc2cc(F)ccc2-c2cccnc2)N(C)C1=O [Example 280] ({cBuCO(3,3-F2-1-CF3)}-[Pro(trans-4-F)][Gly(cPr)][NMe(hhhLys)]L[X176]; lactam 3-C) | 10 nM | 320 nM | 40 nM | 20 nM | 10 nM |  |  |  |
| CC(C)C[C@@H]1NC(=O)[C@@H](N(C)C(=O)[C@@H](NC(=O)[C@@H]2C[C@@H](F)CN2C(=O)C2(C(F)(F)F)CC(F)(F)C2)C2CC2)CCCCCCCN(C)C(=O)[C@H](Cc2cc(Cl)ccc2C2=CCN(C(=O)C(C)(C)C)CC2)N(C)C1=O [Example 144] ({cBuCO(3,3-F2-1-CF3)}-[Pro(trans-4-F)][Gly(cPr)][NMehhhLys(Me)]L[X122]; lactam 3-C) | 70 nM | 840 nM | 20 nM | 20 nM | 70 nM |  |  |  |
| CC(C)C[C@@H]1NC(=O)[C@@H](N(C)C(=O)[C@@H](NC(=O)[C@@H]2C[C@@H](F)CN2C(=O)C2(C(F)(F)F)CC2)C2CC2)CCCCCCCNC(=O)[C@H](Cc2cc(Cl)ccc2Cl)N(C)C1=O [Example 9] ({Cyclopropanecarbonyl(1-CF3)}-[Pro(trans-4-F)][Gly(cPr)][NMe(hhhLys)]L[NMePhe(2,5-Cl2)]; lactam 3-C) | 110 nM | 400 nM | 250 nM | 20 nM | 80 nM |  |  |  |
| CC(C)C[C@@H]1NC(=O)[C@@H](N(C)C(=O)[C@@H](NC(=O)[C@@H]2C[C@@H](F)CN2C(=O)C2(C(F)(F)F)CC(F)(F)C2)C2CC2)CC=CCCCCNC(=O)[C@H](Cc2cc(Cl)cnc2OC2CC2)N(C)C1=O (single isomer, unassigned) [Example 102-P1] | 810 nM | 1110 nM | 310 nM | 20 nM | 350 nM |  |  |  |
| CC(C)C[C@@H]1NC(=O)[C@@H](N(C)C(=O)[C@@H](NC(=O)[C@@H]2C[C@@H](F)CN2C(=O)C2(C(F)(F)F)CC(F)(F)C2)C2CC2)CCCCCCCNC(=O)[C@H](Cc2cc(Cl)ccc2C2=CCN(S(C)(=O)=O)CC2)N(C)C1=O [Example 284] ({cBuCO(3,3-F2-1-CF3)}-[Pro(trans-4-F)][Gly(cPr)][NMe(hhhLys)]L[X142]; lactam 3-C) | 10 nM | 1740 nM | 20 nM | 20 nM | 10 nM |  |  |  |
